The source of these data is ChEMBL document CHEMBL1201862, “PubChem BioAssay data set” (2004).

SMILES strings stand for the structures. Activity calls are given as the source filed them.

Test [1] has as its target T1, Beta-galactosidase (Escherichia coli, UniProt Q8VNN2). In words: PubChem AID 485352. It counts as functional.
Test [2] addresses Type-1 angiotensin II receptor (Homo sapiens, UniProt P30556). Put plainly: antagonism of angiotensin II type 1 receptor – cell-based, uHTS hits, selectivity assay for APJ receptor antagonist project, dose response (AID 463214).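 Also: antagonist potency against angiotensin II stimulated AT1 response.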 In kind it is functional.
A further test deals with NS3 (Hepatitis C virus, UniProt A3EZJ3). In words: PubChem AID 2173. Further details: species or system Hepacivirus hominis.
The target in the next test is DNA topoisomerase (Yersinia pestis, UniProt A0A2S9PM60). Put plainly: Yersinia topoisomerase I cleavage product accumulation – biochemical, cherry-pick, dose response (AID 588525).
Chain of DNA topoisomerase (A0A2S9PM60 whole entry): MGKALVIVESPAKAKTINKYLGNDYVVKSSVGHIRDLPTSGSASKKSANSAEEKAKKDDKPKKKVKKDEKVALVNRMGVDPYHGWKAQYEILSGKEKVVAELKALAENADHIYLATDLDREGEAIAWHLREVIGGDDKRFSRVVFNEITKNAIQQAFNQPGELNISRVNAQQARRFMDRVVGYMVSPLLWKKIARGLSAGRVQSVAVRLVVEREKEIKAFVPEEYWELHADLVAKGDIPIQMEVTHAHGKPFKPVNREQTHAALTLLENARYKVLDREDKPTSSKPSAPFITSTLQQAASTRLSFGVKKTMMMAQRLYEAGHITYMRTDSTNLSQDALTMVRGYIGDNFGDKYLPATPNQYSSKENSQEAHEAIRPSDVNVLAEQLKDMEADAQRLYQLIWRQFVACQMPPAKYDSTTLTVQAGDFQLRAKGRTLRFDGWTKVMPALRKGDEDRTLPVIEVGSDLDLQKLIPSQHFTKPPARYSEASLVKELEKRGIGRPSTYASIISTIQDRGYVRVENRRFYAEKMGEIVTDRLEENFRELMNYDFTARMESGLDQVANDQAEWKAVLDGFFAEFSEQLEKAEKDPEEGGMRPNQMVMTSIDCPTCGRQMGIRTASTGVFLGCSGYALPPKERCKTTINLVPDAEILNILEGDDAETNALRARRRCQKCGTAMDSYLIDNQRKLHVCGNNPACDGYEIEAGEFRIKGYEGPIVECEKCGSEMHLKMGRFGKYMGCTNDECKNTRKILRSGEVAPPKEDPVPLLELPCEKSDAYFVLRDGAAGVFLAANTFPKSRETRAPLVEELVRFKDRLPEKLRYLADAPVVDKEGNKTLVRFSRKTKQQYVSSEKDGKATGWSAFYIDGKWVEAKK
Test [3] addresses T2, Low molecular weight phosphotyrosine protein phosphatase (Homo sapiens, UniProt P24666).
T2 sequence (P24666 whole entry): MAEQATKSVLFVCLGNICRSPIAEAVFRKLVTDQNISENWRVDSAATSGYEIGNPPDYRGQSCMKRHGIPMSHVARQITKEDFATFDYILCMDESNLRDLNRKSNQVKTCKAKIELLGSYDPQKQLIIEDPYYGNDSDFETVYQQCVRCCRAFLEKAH
In kind it is functional. The settings on record: read-out: IC50_Mean.

For the next test, the system named is HeLa. Put plainly: ATP-based viability loss in HeLa cells – cell-based, CellTiter-Glo luminescence, cherry-pick samples, cytotoxicity control for MITF activator project, dose response (AID 540259). In kind it is functional. The settings on record: Homo sapiens. In general terms: ATP-based viability assays read luminescence as a measure of living cells.
Another test has as its system CHO. Put plainly: CHO cell viability loss, potency – luminescence, cytotoxicity control for TLR9-MyD88 binding inhibitor project, dose response (AID 588339).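 Also: CHO cells stably coexpressing TLR9 and MyD88 fusions from primary screen; compound exposure lasted 48 hours before viability readout.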 The settings on record: Cricetulus griseus. It counts as functional, cell-based, hamster.
A further test addresses Beta Lactamase (Pseudomonas aeruginosa, UniProt Q932Y6). In words: BLA reporter interference, concentration series – BLA reporter cells, FRET fluorescence, artefact control for TLR9-MyD88 binding inhibitor project, dose response (AID 588341).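 Also: cell based assay in CHO-K1 cells stably expressing beta-lactamase.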 It counts as cell-based.
Test [4] deals with T3, Delta-type opioid receptor (Homo sapiens, UniProt P41143). Put plainly: HTS Image-Based Screen for Antagonists of the DOR Receptor. [Related pubchem assays (depositor defined):AID1777, AID1785, AID1786, AID2133]. In kind it is functional.
T3 sequence (P41143 whole entry): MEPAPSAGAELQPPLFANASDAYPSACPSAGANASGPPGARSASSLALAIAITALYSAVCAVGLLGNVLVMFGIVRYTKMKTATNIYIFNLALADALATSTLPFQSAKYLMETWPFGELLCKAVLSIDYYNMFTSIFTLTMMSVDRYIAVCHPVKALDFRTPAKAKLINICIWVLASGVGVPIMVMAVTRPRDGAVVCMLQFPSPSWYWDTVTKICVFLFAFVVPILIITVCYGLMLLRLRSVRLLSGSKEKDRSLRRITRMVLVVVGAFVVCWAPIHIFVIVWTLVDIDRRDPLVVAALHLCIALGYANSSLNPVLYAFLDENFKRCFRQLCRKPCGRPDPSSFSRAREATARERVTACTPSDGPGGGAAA
The target of another test is Mu-type opioid receptor (Homo sapiens, UniProt P35372). Put plainly: HTS Image-Based Screen for Agonists of the MOR Receptor. [Related pubchem assays (depositor defined):AID1777, AID1785, AID1786, AID2133]. It counts as functional.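 Also: imaging of beta-arrestin GFP recruitment into spots after receptor activation.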
Chain of Mu-type opioid receptor (P35372 whole entry): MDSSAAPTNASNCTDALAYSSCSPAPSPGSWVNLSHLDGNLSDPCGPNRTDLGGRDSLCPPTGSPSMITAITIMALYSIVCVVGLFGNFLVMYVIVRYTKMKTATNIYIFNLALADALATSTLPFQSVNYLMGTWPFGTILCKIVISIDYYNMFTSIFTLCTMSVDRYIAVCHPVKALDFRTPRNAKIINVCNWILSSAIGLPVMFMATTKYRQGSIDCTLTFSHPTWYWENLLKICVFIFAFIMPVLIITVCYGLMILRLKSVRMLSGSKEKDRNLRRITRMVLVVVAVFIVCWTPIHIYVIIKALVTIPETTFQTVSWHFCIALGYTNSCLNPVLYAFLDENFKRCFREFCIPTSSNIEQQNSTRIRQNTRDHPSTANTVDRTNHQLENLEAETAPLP
In test [5] the test system is Streptococcus sp. 'group A'. Put plainly: Streptococcus pyogenes SK(-)GAS viability under kanamycin – luminescence, BacTiterGlo, confirmation, counter-screen for streptokinase expression inhibitor project, dose response (AID 1900). In kind it is functional, organism-based.
In test [6] the target is T3, Delta-type opioid receptor. Put plainly: HTS Image-Based Screen for Agonists of the DOR Receptor. [Related pubchem assays (depositor defined):AID1777, AID1786, AID2133]. It counts as functional.
The next test has as its target T4, Streptokinase A (Streptococcus pyogenes serotype M1, UniProt P10520).
T4 sequence (P10520 whole entry): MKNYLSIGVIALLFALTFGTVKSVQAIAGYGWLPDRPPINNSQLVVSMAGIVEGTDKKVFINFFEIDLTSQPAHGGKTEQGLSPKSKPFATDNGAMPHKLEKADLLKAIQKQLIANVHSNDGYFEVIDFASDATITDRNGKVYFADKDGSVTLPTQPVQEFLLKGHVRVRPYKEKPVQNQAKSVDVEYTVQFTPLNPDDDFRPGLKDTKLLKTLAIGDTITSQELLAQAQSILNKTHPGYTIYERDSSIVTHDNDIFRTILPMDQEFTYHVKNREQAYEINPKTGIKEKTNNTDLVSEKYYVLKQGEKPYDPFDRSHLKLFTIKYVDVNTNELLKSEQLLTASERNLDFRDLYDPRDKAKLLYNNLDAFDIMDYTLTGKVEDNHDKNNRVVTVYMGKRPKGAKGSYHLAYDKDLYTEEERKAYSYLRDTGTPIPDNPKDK
Put plainly: viability-normalized secreted streptokinase activity reduction – plasminogen activation absorbance, OD405, dose response (AID 1914).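 Also: secreted streptokinase activity via plasminogen activation per viability signal from cell pellet.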 It counts as functional, Streptococcus pyogenes M1 GAS.

For test [7], the target named is T5, Kappa-type opioid receptor (Homo sapiens, UniProt P41145). In kind it is functional.
T5 sequence (P41145 whole entry): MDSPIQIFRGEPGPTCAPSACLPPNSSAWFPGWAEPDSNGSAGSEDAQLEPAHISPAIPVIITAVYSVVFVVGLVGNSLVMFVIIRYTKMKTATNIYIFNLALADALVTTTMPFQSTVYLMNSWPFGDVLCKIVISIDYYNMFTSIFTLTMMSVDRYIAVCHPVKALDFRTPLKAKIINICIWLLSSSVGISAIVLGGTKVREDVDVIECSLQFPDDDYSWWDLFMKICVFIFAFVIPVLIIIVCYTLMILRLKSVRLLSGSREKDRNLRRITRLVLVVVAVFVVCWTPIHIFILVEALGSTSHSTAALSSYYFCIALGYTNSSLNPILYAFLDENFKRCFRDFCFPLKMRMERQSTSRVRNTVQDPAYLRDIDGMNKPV
The target in test [8] is Bifunctional protein GlmU (Mycobacterium tuberculosis, UniProt P9WMN3). Put plainly: Inhibitors of Mycobacterial Glucosamine-1-phosphate acetyl transferase (GlmU). Secondary screen. Further details: species or system Mycobacterium tuberculosis H37Rv.
Test [9] has as its target T1, Beta-galactosidase. In kind it is functional.
The target of test [10] is T5, Kappa-type opioid receptor. It counts as functional. This is another data set of the same source.
The target in test [11] is Induced myeloid leukemia cell differentiation protein Mcl-1 (Homo sapiens, UniProt Q07820). It counts as functional.
Another test concerns Streptococcus. In words: GAS UMAA2166 growth inhibition – luminescence, BacTiterGlo, counter-screen for streptokinase expression inhibitor project, dose response (AID 1915).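 Also: potency for reduction of bacterial viability or growth.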 It counts as functional, organism-based. In general terms: A counterscreen serves to expose hits that act by an unwanted route or on another target.
In test [12] the target is T6, Replicative DNA helicase DnaB (Mycobacterium tuberculosis, UniProt P9WMR3).
T6 sequence (P9WMR3 whole entry): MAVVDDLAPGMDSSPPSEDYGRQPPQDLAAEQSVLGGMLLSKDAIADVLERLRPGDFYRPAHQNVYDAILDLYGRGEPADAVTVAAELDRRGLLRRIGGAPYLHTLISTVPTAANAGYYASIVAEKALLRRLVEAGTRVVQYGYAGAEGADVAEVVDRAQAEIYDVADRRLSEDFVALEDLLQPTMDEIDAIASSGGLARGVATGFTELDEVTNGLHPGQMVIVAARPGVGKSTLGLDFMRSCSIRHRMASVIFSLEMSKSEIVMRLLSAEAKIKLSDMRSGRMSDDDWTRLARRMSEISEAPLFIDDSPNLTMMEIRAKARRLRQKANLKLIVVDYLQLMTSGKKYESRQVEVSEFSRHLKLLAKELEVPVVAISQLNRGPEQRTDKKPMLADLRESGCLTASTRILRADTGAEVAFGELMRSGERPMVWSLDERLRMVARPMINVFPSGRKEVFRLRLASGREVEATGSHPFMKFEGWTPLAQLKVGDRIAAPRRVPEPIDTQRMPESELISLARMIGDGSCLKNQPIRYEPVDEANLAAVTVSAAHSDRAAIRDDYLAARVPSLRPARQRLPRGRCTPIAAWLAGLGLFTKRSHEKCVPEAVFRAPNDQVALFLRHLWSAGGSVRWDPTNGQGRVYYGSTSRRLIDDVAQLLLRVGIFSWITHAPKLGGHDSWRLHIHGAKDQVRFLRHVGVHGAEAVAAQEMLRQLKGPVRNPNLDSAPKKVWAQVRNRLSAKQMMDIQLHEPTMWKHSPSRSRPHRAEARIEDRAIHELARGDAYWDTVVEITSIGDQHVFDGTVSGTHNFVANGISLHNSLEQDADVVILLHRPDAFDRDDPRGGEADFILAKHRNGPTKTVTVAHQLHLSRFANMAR
In words: DnaB intein splicing inhibitors, dose response, biochemical, cell-free fluorescence (AID 449749). It counts as functional.

Another test concerns the target T7, Protein RecA (Mycobacterium tuberculosis, UniProt P9WHJ3).
T7 sequence (P9WHJ3 whole entry): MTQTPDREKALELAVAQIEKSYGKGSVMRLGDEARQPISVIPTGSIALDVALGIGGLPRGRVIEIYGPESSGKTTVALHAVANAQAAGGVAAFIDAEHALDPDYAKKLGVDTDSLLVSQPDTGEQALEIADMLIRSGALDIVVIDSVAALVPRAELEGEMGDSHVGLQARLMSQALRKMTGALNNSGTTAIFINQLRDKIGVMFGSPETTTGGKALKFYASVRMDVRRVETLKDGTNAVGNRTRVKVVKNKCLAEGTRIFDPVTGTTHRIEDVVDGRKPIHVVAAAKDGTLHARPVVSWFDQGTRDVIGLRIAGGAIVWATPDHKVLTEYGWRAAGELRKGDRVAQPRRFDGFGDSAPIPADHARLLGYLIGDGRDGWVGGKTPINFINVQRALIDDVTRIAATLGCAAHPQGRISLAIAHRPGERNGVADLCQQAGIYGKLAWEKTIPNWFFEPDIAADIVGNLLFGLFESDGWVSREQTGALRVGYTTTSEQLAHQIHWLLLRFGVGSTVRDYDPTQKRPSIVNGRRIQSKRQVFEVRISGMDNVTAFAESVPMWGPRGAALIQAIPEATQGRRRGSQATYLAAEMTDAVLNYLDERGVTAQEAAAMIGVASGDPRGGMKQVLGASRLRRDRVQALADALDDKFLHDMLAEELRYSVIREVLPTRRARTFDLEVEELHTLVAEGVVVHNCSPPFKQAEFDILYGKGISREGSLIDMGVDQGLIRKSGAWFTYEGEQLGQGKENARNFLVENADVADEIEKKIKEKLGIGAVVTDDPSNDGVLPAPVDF
In words: Fluorescence Cell-Free Homogeneous Dose Retest to Identify Inhibitors of RecA-Intein Splicing Activity. [Related pubchem assays (depositor defined):AID2097, AID2223, AID489010, AID492950]. It counts as functional.

Test [13] addresses T8, Fatty acid synthase (Homo sapiens, UniProt P49327). Put plainly: inhibition of human FAS-TE enzyme activity – biochemical, endpoint fluorescence intensity, uHTS hits, dose response (AID 624327).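 Also: fluorescence from hydrolysis of an O-methyl fluorescein acyl ester substrate by the enzyme.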 In kind it is functional.
Test [14] addresses T8, Fatty acid synthase. In words: inhibition of human FAS-TE enzyme activity – biochemical, kinetic fluorescence intensity, dose response (AID 624326).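 Also: rate of fluorescence rise from hydrolysis of a fluorogenic O-methyl fluorescein ester substrate.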 It counts as functional.
A further test has as its target Trypsin (Sus scrofa, UniProt P00761). In words: trypsin protease activity blockade – biochemical, quenched peptide fluorescence, cherry-pick, selectivity assay for Rce1 protease inhibitor project, dose response (AID 488789).
In a further test the target is CAAX prenyl protease 2 (Homo sapiens, UniProt Q9Y256). Put plainly: inhibition of Ras-converting CAAX protease Rce1 – biochemical, yeast membranes, quenched-peptide fluorescence, cherry-pick, dose response (AID 588849).
Test [15] addresses T9, Endoribonuclease toxin MazF (Escherichia coli K-12, UniProt P0AE70).
T9 sequence (P0AE70 whole entry): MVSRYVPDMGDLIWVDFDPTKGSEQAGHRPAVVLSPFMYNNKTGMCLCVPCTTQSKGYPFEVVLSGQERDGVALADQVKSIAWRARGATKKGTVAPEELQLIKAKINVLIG
In words: activation of MazEF endoribonuclease cleavage – biochemical, fluorescence, single-stranded RNA substrate, uHTS hits, dose response (AID 588481). In kind it is functional.

In test [16] the target is Heat shock protein HSP 90-alpha (Homo sapiens, UniProt P07900). In kind it is functional, organism-based.
In test [17] the target is T9, Endoribonuclease toxin MazF. In words: substrate-only fluorescence increase artefacts – biochemical, single-stranded RNase substrate, counter-screen for MazEF activator project, dose response (AID 588502). In kind it is functional.
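For IC50 Mean in this document: Dose-response confirmation assay measuring inhibition of LMPTP enzyme activity by fluorescence intensity read-out.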

T8 sequence (P49327 whole entry): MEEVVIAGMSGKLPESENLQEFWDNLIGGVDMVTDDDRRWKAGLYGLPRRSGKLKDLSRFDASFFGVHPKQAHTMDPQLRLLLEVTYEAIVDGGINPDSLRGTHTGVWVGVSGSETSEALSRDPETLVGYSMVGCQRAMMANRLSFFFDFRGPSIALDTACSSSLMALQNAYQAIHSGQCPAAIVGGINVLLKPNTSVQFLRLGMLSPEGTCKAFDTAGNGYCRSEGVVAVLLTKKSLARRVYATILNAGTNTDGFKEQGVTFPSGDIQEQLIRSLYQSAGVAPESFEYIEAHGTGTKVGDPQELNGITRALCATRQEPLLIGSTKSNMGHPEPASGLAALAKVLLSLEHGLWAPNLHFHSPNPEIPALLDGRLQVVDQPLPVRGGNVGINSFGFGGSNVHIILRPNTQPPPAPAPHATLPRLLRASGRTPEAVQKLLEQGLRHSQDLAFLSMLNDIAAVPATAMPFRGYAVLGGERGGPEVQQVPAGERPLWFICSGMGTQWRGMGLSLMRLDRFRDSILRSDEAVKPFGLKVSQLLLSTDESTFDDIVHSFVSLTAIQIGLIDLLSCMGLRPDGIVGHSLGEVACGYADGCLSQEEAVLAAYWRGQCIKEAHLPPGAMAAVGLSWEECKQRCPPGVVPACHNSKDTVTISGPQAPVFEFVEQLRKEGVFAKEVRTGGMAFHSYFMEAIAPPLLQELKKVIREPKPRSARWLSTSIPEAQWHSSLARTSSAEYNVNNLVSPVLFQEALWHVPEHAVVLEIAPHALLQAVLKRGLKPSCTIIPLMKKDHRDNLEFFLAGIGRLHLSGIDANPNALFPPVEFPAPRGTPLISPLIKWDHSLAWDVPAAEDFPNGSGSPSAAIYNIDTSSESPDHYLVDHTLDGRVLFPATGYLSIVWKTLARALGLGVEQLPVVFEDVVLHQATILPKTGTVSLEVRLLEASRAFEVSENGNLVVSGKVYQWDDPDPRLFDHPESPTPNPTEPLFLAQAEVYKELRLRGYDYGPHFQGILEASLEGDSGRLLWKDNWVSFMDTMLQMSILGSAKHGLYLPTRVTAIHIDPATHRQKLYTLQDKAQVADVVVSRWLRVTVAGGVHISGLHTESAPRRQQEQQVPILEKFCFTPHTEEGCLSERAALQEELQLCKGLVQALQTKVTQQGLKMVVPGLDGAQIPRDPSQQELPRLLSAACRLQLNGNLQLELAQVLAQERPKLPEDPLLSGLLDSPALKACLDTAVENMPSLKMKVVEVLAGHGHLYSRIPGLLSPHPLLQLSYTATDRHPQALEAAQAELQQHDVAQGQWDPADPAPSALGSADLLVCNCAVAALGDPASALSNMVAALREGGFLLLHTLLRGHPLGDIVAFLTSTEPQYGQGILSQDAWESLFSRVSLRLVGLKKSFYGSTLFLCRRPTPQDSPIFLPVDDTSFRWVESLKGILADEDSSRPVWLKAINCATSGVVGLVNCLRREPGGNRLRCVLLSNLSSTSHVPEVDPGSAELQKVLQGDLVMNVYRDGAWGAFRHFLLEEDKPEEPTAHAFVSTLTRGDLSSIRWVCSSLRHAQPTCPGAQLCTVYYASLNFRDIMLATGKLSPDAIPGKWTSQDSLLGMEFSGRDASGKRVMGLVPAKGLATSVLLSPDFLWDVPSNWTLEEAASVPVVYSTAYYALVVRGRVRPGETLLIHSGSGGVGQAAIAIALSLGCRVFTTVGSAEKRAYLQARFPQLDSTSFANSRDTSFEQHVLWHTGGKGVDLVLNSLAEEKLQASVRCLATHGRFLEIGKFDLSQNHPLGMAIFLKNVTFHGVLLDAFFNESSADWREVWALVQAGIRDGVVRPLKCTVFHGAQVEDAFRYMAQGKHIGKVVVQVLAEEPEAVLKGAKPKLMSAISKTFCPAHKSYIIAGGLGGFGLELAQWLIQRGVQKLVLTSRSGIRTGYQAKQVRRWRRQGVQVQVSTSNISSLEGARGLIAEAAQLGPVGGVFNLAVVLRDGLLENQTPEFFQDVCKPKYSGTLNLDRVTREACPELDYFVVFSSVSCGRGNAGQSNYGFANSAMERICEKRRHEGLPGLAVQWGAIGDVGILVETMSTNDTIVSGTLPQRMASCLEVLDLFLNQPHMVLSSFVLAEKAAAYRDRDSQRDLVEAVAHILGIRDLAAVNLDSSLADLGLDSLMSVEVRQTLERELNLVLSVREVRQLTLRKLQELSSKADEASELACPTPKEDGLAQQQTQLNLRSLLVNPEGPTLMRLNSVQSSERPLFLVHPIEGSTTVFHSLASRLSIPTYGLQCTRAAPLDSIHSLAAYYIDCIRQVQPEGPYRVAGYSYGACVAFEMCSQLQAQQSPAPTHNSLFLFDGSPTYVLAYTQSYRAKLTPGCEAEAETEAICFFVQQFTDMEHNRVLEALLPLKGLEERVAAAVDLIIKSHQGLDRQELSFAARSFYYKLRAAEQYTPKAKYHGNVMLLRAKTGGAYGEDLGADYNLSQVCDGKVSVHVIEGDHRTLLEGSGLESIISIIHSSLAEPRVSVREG
Chain of Beta Lactamase (Q932Y6 whole entry): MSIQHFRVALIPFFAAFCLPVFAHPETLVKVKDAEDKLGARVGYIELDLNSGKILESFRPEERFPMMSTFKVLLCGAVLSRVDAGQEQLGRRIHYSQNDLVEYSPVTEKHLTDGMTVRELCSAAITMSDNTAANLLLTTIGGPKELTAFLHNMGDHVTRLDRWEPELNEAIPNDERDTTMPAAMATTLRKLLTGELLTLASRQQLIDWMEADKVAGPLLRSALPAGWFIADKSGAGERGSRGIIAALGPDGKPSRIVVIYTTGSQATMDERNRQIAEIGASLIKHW
Chain of Trypsin (P00761 whole entry): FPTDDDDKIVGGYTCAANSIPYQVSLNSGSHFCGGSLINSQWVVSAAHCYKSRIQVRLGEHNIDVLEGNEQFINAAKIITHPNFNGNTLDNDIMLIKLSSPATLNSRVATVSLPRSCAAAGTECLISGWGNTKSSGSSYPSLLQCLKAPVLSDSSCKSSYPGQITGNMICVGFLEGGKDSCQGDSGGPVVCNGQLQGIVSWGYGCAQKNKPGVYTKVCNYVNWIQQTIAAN

With `CC(=O)c1ccc(NC(=O)CCC(=O)OCC(=O)c2cccc([N+](=O)[O-])c2)cc1`, the EC50 on Beta-galactosidase [1] is > 40 µM (inactive). Moreover, the IC50 in test [2] is recorded as 34.5 µM (not active).
For the compound `COc1c(N2CCN(C(S)=NCc3ccccc3)C(C)C2)c(F)cc2c(=O)c(C(=O)O)cn(C3CC3)c12` (centres undefined), the IC50 against NS3 is 14.9 µM (not active); in test [3] it was 5.55 µM (active). For the same compound, on DNA topoisomerase, the AC50 was 27.8 µM (active).
As for `c1ccc2cc(C3CCCCC3)ncc2c1`, in the test with HeLa, the AC50 is 36.7 µM (active).
On to `Nc1c(C(=O)Nc2ccccc2F)sc2nc(-c3cccnc3)ccc12`, for which the IC50 in the test with CHO was 21.7 µM (inactive); at Beta Lactamase it was 14 µM (inactive).
Turning to `Cc1nnc(Sc2cc(NCCCO)c([N+](=O)[O-])c3nonc23)s1`, the IC50 in test [4] was > 32 µM (inactive); in [7], 6.15 µM (active); in test [8] it was 77.8 µM (active); in test [10] it was over 32 µM; in test [11], 3.11 µM (active); in the test on CHO it was 3.37 µM (active). Moreover, the values for the IC50 on Beta Lactamase, at Fatty acid synthase [13] and at Fatty acid synthase [14] were 10.9 µM (inactive), 3.78 µM (active) and 3.99 µM (active), respectively. Also, the EC50 is > 32 µM (inactive) on Mu-type opioid receptor; 6.33 µM (active) in [5]; > 32 µM (inactive) in [6]; 21.2 µM (inconclusive) on Streptokinase A; > 31.5 µM (inactive) at Beta-galactosidase [9]; 7.62 µM (active) in the test with Streptococcus. In addition, the EC50 at Protein RecA was 1.85 µM (active). Also, the AC50 in test [12] is 2.07 µM (active).
For `Cc1c(C)c2c(OCC(=O)NCc3ccncc3)cc3c(c2oc1=O)CCC(C)(C)O3`, the AC50 was 5.4 µM (active) at Trypsin and 759 nM (active) on CAAX prenyl protease 2.
For `COC[C@H]1OC(=O)c2coc3c2[C@@]1(C)C1=C(C3=O)[C@@H]2CCC(=O)[C@@]2(C)C[C@H]1OC(C)=O` [WORTMANNIN], the EC50 in test [15] and in test [17] was > 99 µM (inactive) each time. For the same compound, in test [16], the AC50 is 363 nM (active).
Consider `Cc1ccc(CSC2=Nc3ccccc3C3=NC(=O)CN23)cc1`, for which the AC50 on DNA topoisomerase is 2.02 µM (active).
Turning to `COc1ccc2c(c1)oc(=O)c1cc(OC)ccc12`, the AC50 in the test on HeLa was 46.8 µM (active).
As for `Cc1cccc(NC(=O)c2ccc(NCCc3ccccc3)c([N+](=O)[O-])c2)c1`, the results for the EC50 in [15] and in test [17] were 17.9 µM (active) and > 99 µM (inactive), respectively.

By EC50 is commonly meant the midpoint of the concentration-response curve. For orientation: AC50 means the concentration giving half of the maximal activity seen.
